Test systems include NCI-H460 lung; K-562 leukemia; SN12C renal; OVCAR-3 ovarian; SF-268 CNS; ACHN renal; U251 CNS; HCT-116 colon; HS 578T breast.
What all share (assay): NCI-60 cell line screen, 48 h

Experimental findings from PubChem BioAssay (NCI) are described below.

The structures appear in SMILES notation.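 How tested: cells in 96-well plates exposed to compound for 48 hours at five concentrations. The concentration for 50% growth inhibition is given as GI50. The concentration for full growth arrest is given as TGI.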

For the compound `CC1OC(n2cc(I)c(=O)[nH]c2=O)C=CC1=O` (configuration not stated), the TGI with NCI-H460 lung stood at 35.1 µM; with K-562 leukemia it was 18 µM; in the test on SN12C renal, 33.3 µM; with OVCAR-3 ovarian, 31.5 µM; in the test with SF-268 CNS, 27.1 µM; in the test with ACHN renal, 31.5 µM. Further, the TGI in the test with U251 CNS was 27.6 µM; in the test on HCT-116 colon it was 24.9 µM.

Consider `Cc1cc(O)c(O)c(Oc2cc(C)cc(O)c2O)c1`, for which the TGI is 26.6 µM in the test on NCI-H460 lung; more than 100 µM in the test on HS 578T breast; more than 100 µM with K-562 leukemia; 59.7 µM with SN12C renal; more than 100 µM in the test on OVCAR-3 ovarian; 95 µM with SF-268 CNS. The TGI with ACHN renal was 79.9 µM; with U251 CNS, more than 100 µM; in the test with HCT-116 colon, 41.1 µM.

In the case of `CC1=C2[C@@H](c3ccccc3)C3C=CC2(c2ccccc23)N(C(=O)Nc2cccc3ccccc23)C1=O` (some centres not stated), the TGI with K-562 leukemia, in the test on SN12C renal, with OVCAR-3 ovarian, with SF-268 CNS, with ACHN renal and in the test on U251 CNS was more than 100 µM in each case. The TGI with HCT-116 colon is more than 100 µM.

Consider `C[CH2][Sn]([Cl])([CH2]C)[CH2]C`, for which the GI50 in the test on NCI-H460 lung is 1.67 µM; in the test on K-562 leukemia, 0.718 µM; with SN12C renal, 0.841 µM; with OVCAR-3 ovarian, 1.34 µM; with SF-268 CNS it was 1.59 µM; in the test with ACHN renal it was 1.46 µM. Also, the results for the GI50 in the test with U251 CNS and in the test with HCT-116 colon were 0.771 µM and 1.33 µM, respectively. Moreover, the TGI in the test on NCI-H460 lung is 5.44 µM; in the test with K-562 leukemia it was 5 µM; in the test with SN12C renal it was 3.47 µM; in the test with OVCAR-3 ovarian, 6.61 µM; with SF-268 CNS it was 7.94 µM; with ACHN renal, 8.27 µM. The figures for the TGI in the test on U251 CNS and with HCT-116 colon were 2.97 µM and 10.4 µM, respectively.

Consider `O=[N+]([O-])c1cc([N+](=O)[O-])c(C(Cl)C(Cl)c2ccccc2)cc1C(Cl)C(Cl)c1ccccc1` (configuration not stated), for which the TGI amounted to 3.58 µM in the test with K-562 leukemia; 3.49 µM with SN12C renal; 5.06 µM in the test on OVCAR-3 ovarian; 4.02 µM in the test on SF-268 CNS; 3.55 µM in the test with ACHN renal; 3.26 µM with U251 CNS. The compound also came in with a TGI in the test with HCT-116 colon of 2.69 µM.

As for `CO[C@]12CCC(=O)N1C=Cc1c2[nH]c2ccccc12`, the TGI in the test on NCI-H460 lung, with K-562 leukemia, in the test with OVCAR-3 ovarian, in the test on SF-268 CNS, in the test on ACHN renal and in the test with HCT-116 colon was more than 100 µM throughout.

As for `O=C(NCCCCCCNC(=O)NC1OCC(O)C(O)C1O)NC1OCC(O)C(O)C1O` (configuration not stated), the TGI in the test on NCI-H460 lung, in the test with K-562 leukemia, in the test with SN12C renal, in the test with OVCAR-3 ovarian, in the test on SF-268 CNS and in the test with ACHN renal was more than 100 µM throughout. Also, the TGI in the test with U251 CNS and in the test with HCT-116 colon was more than 100 µM each time.

Regarding `CN1CCc2cc(O)c3cc2C1Cc1ccc(cc1)Oc1cc(ccc1O)CC1c2c(cc4c(c2O3)OCO4)CCN1C` (configuration not stated), the TGI is more than 100 µM in the test on NCI-H460 lung; 39.4 µM in the test on K-562 leukemia; more than 100 µM in the test on SN12C renal; more than 100 µM with OVCAR-3 ovarian; more than 100 µM with SF-268 CNS; more than 100 µM in the test on ACHN renal. The TGI in the test on U251 CNS and in the test with HCT-116 colon was more than 100 µM each time.

`CCOC(=O)NN(C(=O)OCC)C(C(=O)c1ccc(Cl)cc1)=C1NCCN1`: the TGI in the test with NCI-H460 lung, in the test on K-562 leukemia, with SN12C renal, in the test with OVCAR-3 ovarian, with SF-268 CNS and with ACHN renal was more than 100 µM throughout. The TGI in the test with U251 CNS and in the test on HCT-116 colon was more than 100 µM each time.

As for `CCC[CH2][Ge]([CH2]CCC)([CH2]CCC)[O]C(=O)C(OC(C)=O)c1ccccc1` (configuration not stated), the GI50 is 1.24 µM with NCI-H460 lung; 0.202 µM with K-562 leukemia; 7.7 µM in the test on SN12C renal; 0.731 µM in the test with OVCAR-3 ovarian; 1.46 µM in the test with SF-268 CNS; 2.76 µM in the test on ACHN renal. In addition, the GI50 was 1.19 µM with U251 CNS and 0.139 µM with HCT-116 colon. Further, the TGI with NCI-H460 lung is 20 µM; in the test with K-562 leukemia, more than 34 µM; in the test on SN12C renal, 24.9 µM; in the test with OVCAR-3 ovarian, 8.52 µM; with SF-268 CNS it was 27.8 µM; in the test with ACHN renal it was 19.8 µM. For the same compound, the results for the TGI with U251 CNS and in the test on HCT-116 colon were 20.2 µM and 13.4 µM, respectively.

As to `CC(=O)OCc1c(C)c2ccccc2n1C(C)=O`, the TGI in the test with K-562 leukemia is 71.5 µM; in the test on SN12C renal, more than 100 µM; in the test with OVCAR-3 ovarian it was 62.8 µM; with SF-268 CNS it was more than 100 µM; in the test on ACHN renal, 71 µM; with U251 CNS it was more than 100 µM. This compound yielded a TGI with HCT-116 colon of more than 100 µM.

`N#Cc1nc(Nc2ccc(Cl)cc2)sc1N`: the TGI with NCI-H460 lung is more than 74.7 µM; in the test with K-562 leukemia it was 48.6 µM; in the test on SN12C renal, more than 69.1 µM; in the test with OVCAR-3 ovarian, more than 61.8 µM; in the test on SF-268 CNS, more than 77.9 µM; in the test on ACHN renal, 23.6 µM. Also, the TGI is 34.1 µM in the test with U251 CNS and more than 100 µM in the test on HCT-116 colon.

As to `Cc1ccc(S(=O)(=O)NC(=O)C#CCOC2CCCCO2)cc1` (configuration not stated), the TGI in the test on NCI-H460 lung, with K-562 leukemia, in the test on SN12C renal, with OVCAR-3 ovarian, in the test with ACHN renal and with U251 CNS was more than 100 µM in each case. Moreover, the TGI in the test with HCT-116 colon is more than 100 µM.

Turning to `O=C(CC(=O)c1cccc([N+](=O)[O-])c1)C(=O)Nc1nc([N+](=O)[O-])cs1`, the TGI with NCI-H460 lung, in the test with K-562 leukemia, in the test with SN12C renal, in the test on OVCAR-3 ovarian, with SF-268 CNS and in the test on U251 CNS was more than 100 µM throughout. In addition, the TGI with HCT-116 colon is more than 100 µM.
